From PMC6941823, “A dispensable paralog of succinate dehydrogenase subunit C mediates standing resistance towards a subclass of SDHI fungicides in Zymoseptoria tritici” (PLoS Pathogens, 2019)
Like-named read-outs stand apart in the source and are kept apart here.

How the values were obtained:
[1] = target: SQR (SDHC / altC) of IPO323 pTet::SDHC3 transformant, repressed (Zymoseptoria tritici, UniProt A0A1X7RQW2+F9X9V6+F9XH52+O42772); experiment: Succinate-quinone (SQR) SDHI sensitivity assay on purified mitochondria, IPO323 pTet::SDHC3 repressed; type: biochemical
Sequence of SQR (SDHC / altC) of IPO323 pTet::SDHC3 transformant, repressed (F9XH52 44-187): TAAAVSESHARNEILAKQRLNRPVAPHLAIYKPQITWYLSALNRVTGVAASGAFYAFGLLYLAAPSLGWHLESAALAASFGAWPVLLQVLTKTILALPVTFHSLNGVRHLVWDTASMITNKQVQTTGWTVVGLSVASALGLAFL
Sequence of SQR (SDHC / altC) of IPO323 pTet::SDHC3 transformant, repressed (O42772 20-297): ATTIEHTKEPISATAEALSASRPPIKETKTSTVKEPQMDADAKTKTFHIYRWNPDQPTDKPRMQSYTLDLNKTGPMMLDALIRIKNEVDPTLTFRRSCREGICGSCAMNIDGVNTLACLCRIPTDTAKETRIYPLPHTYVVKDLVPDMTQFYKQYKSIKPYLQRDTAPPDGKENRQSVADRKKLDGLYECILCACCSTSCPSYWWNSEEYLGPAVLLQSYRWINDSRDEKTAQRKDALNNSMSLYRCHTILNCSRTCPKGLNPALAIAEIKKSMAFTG
Sequence of SQR (SDHC / altC) of IPO323 pTet::SDHC3 transformant, repressed (F9X9V6 1-193): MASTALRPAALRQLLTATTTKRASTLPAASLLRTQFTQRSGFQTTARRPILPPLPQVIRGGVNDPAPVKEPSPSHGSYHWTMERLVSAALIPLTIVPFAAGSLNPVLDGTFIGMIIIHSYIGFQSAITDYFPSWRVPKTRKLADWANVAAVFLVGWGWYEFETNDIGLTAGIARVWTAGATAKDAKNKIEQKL
Sequence of SQR (SDHC / altC) of IPO323 pTet::SDHC3 transformant, repressed (A0A1X7RQW2 36-181): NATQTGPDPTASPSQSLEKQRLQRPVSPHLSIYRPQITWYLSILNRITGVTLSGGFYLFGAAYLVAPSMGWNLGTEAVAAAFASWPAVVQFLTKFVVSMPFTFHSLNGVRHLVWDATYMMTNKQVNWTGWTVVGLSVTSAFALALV
Sequence of SQR (SDHC / altC) of IPO323 pTet::SDHC3 transformant, repressed (F9WWR1 41-643 partner): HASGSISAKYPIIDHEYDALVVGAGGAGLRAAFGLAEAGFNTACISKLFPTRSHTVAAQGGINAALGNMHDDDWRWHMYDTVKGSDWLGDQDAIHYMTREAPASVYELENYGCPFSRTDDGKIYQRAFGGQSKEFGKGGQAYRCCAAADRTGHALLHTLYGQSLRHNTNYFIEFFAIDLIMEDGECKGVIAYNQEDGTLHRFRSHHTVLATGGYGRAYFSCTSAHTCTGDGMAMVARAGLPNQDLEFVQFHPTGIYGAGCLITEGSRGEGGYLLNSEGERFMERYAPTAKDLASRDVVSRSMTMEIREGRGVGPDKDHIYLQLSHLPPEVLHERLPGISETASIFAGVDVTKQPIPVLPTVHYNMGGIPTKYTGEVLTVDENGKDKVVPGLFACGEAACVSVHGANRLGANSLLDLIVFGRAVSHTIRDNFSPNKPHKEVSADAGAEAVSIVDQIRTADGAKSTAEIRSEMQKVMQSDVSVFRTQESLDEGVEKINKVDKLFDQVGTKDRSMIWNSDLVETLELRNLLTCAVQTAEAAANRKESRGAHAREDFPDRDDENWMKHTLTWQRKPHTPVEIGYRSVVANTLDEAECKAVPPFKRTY
Procedure, shortened: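 Succinate:ubiquinone/DCPIP reductase inhibition measured on purified mitochondria from Zymoseptoria tritici strains carrying either a single C-subunit gene (ZtSDHC1, ZtSDHC1_A84I or ZtSDHC3) or both ZtSDHC1 and ZtSDHC3; pTet::SDHC3 transformant tested under repressed and induced conditions.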

[2] = test system: Zymoseptoria tritici progeny isolates; type: cell-based; conditions: for phenotype flag S (sensitive): 1 = sensitive; for Phenotype sensitive (S) flag: fluopyram 10 mg.L^-1 agar, 1 in S column; for phenotype flag, sensitive (S): growth on fluopyram 10 mg.L^-1 agar; for phenotype flag, sensitive (S) / Phenotyping Growth Fluopyram 10ppm Sensitive: 1 = scored sensitive; for Phenotype scored sensitive (S): agar growth on fluopyram 10 mg.L^-1, 1 = scored in this class

O=C(NCCc1ncc(C(F)(F)F)cc1Cl)c1ccccc1C(F)(F)F [Fluopyram]
0: Phenotyping Growth Fluopyram 10ppm Sensitive ([2]; strain D024 (parent), cross IPO323XD024, 0 = not)
1: phenotype flag S (sensitive) ([2]; progeny isolate 25, cross IPO323XD024) | phenotype flag S (sensitive) ([2]; progeny isolate 27, cross IPO323XD024) | phenotype flag S (sensitive) ([2]; progeny isolate 28, cross IPO323XD024) | phenotype flag S (sensitive) ([2]; progeny isolate 31, cross IPO323XD024) | phenotype flag S (sensitive) ([2]; progeny isolate 32, cross IPO323XD024) | phenotype flag S (sensitive) ([2]; progeny isolate 34, cross IPO323XD024) | phenotype flag S (sensitive) ([2]; progeny isolate 37, cross IPO323XD024) | phenotype flag S (sensitive) ([2]; progeny isolate 39, cross IPO323XD024) | phenotype flag S (sensitive) ([2]; progeny isolate 40, cross IPO323XD024) | phenotype flag S (sensitive) ([2]; progeny isolate 43, cross IPO323XD024) | phenotype flag S (sensitive) ([2]; progeny isolate 46, cross IPO323XD024) | phenotype flag S (sensitive) ([2]; progeny isolate 49, cross IPO323XD024) | phenotype flag S (sensitive) ([2]; progeny isolate 50, cross IPO323XD024) | phenotype flag S (sensitive) ([2]; progeny isolate 51, cross IPO323XD024) | phenotype flag S (sensitive) ([2]; progeny isolate 53, cross IPO323XD024) | phenotype flag S (sensitive) ([2]; progeny isolate 54, cross IPO323XD024) | phenotype flag S (sensitive) ([2]; progeny isolate 55, cross IPO323XD024) | phenotype flag S (sensitive) ([2]; progeny isolate 56, cross IPO323XD024) | phenotype flag S (sensitive) ([2]; progeny isolate 57, cross IPO323XD024) | phenotype flag S (sensitive) ([2]; progeny isolate 59, cross IPO323XD024) | phenotype flag S (sensitive) ([2]; progeny isolate 60, cross IPO323XD024) | phenotype flag S (sensitive) ([2]; progeny isolate 62, cross IPO323XD024) | phenotype flag S (sensitive) ([2]; progeny isolate 63, cross IPO323XD024) | phenotype flag S (sensitive) ([2]; progeny isolate 65, cross IPO323XD024) | phenotype scored sensitive (S), flag 1 ([2]; progeny isolate 67, cross IPO323XD024, fluopyram 10 mg.L^-1 agar) | phenotype scored sensitive (S), flag 1 ([2]; progeny isolate 71, cross IPO323XD024, fluopyram 10 mg.L^-1 agar) | phenotype scored sensitive (S), flag 1 ([2]; progeny isolate 72, cross IPO323XD024, fluopyram 10 mg.L^-1 agar) | phenotype scored sensitive (S), flag 1 ([2]; progeny isolate 75, cross IPO323XD024, fluopyram 10 mg.L^-1 agar) | phenotype scored sensitive (S), flag 1 ([2]; progeny isolate 77, cross IPO323XD024, fluopyram 10 mg.L^-1 agar) | phenotype scored sensitive (S), flag 1 ([2]; progeny isolate 78, cross IPO323XD024, fluopyram 10 mg.L^-1 agar) | phenotype scored sensitive (S), flag 1 ([2]; progeny isolate 82, cross IPO323XD024, fluopyram 10 mg.L^-1 agar) | phenotype scored sensitive (S), flag 1 ([2]; progeny isolate 83, cross IPO323XD024, fluopyram 10 mg.L^-1 agar) | phenotype scored sensitive (S), flag 1 ([2]; progeny isolate 84, cross IPO323XD024, fluopyram 10 mg.L^-1 agar) | phenotype scored sensitive (S), flag 1 ([2]; progeny isolate 88, cross IPO323XD024, fluopyram 10 mg.L^-1 agar) | phenotype scored sensitive (S), flag 1 ([2]; progeny isolate 89, cross IPO323XD024, fluopyram 10 mg.L^-1 agar) | phenotype scored sensitive (S), flag 1 ([2]; progeny isolate 90, cross IPO323XD024, fluopyram 10 mg.L^-1 agar) | phenotype scored sensitive (S), flag 1 ([2]; progeny isolate 91, cross IPO323XD024, fluopyram 10 mg.L^-1 agar) | phenotype scored sensitive (S), flag 1 ([2]; progeny isolate 92, cross IPO323XD024, fluopyram 10 mg.L^-1 agar) | phenotype scored sensitive (S), flag 1 ([2]; progeny isolate 102, cross IPO323XD024, fluopyram 10 mg.L^-1 agar) | phenotype scored sensitive (S), flag 1 ([2]; progeny isolate 103, cross IPO323XD024, fluopyram 10 mg.L^-1 agar) | phenotype scored sensitive (S), flag 1 ([2]; progeny isolate 106, cross IPO323XD024, fluopyram 10 mg.L^-1 agar) | phenotype scored sensitive (S), flag 1 ([2]; progeny isolate 107, cross IPO323XD024, fluopyram 10 mg.L^-1 agar) | Phenotype sensitive (S) flag ([2]; progeny isolate 150 of cross IPO323XD024) | Phenotype sensitive (S) flag ([2]; progeny isolate 151 of cross IPO323XD024) | Phenotype sensitive (S) flag ([2]; progeny isolate 152 of cross IPO323XD024) | Phenotype sensitive (S) flag ([2]; progeny isolate 153 of cross IPO323XD024) | Phenotype sensitive (S) flag ([2]; progeny isolate 155 of cross IPO323XD024) | Phenotype sensitive (S) flag ([2]; progeny isolate 156 of cross IPO323XD024) | Phenotype sensitive (S) flag ([2]; progeny isolate 158 of cross IPO323XD024) | Phenotype sensitive (S) flag ([2]; progeny isolate 161 of cross IPO323XD024) | Phenotype sensitive (S) flag ([2]; progeny isolate 162 of cross IPO323XD024) | Phenotype sensitive (S) flag ([2]; progeny isolate 163 of cross IPO323XD024) | Phenotype sensitive (S) flag ([2]; progeny isolate 166 of cross IPO323XD024) | Phenotype sensitive (S) flag ([2]; progeny isolate 168 of cross IPO323XD024) | Phenotype sensitive (S) flag ([2]; progeny isolate 169 of cross IPO323XD024) | Phenotype sensitive (S) flag ([2]; progeny isolate 173 of cross IPO323XD024) | Phenotype sensitive (S) flag ([2]; progeny isolate 174 of cross IPO323XD024) | Phenotype sensitive (S) flag ([2]; progeny isolate 175 of cross IPO323XD024) | Phenotype sensitive (S) flag ([2]; progeny isolate 176 of cross IPO323XD024) | Phenotype sensitive (S) flag ([2]; progeny isolate 177 of cross IPO323XD024) | Phenotype sensitive (S) flag ([2]; progeny isolate 182 of cross IPO323XD024) | Phenotype sensitive (S) flag ([2]; progeny isolate 184 of cross IPO323XD024) | Phenotype sensitive (S) flag ([2]; progeny isolate 185 of cross IPO323XD024) | phenotype flag, sensitive (S) ([2]; progeny isolate 192, cross IPO323XD024) | phenotype flag, sensitive (S) ([2]; progeny isolate 193, cross IPO323XD024) | phenotype flag, sensitive (S) ([2]; progeny isolate 195, cross IPO323XD024) | phenotype flag, sensitive (S) ([2]; progeny isolate 197, cross IPO323XD024) | phenotype flag, sensitive (S) ([2]; progeny isolate 201, cross IPO323XD024) | phenotype flag, sensitive (S) ([2]; progeny isolate 207, cross IPO323XD024) | phenotype flag, sensitive (S) ([2]; progeny isolate 209, cross IPO323XD024) | phenotype flag, sensitive (S) ([2]; progeny isolate 210, cross IPO323XD024) | phenotype flag, sensitive (S) ([2]; progeny isolate 211, cross IPO323XD024) | phenotype flag, sensitive (S) ([2]; progeny isolate 215, cross IPO323XD024) | phenotype flag, sensitive (S) ([2]; progeny isolate 217, cross IPO323XD024) | phenotype flag, sensitive (S) ([2]; progeny isolate 218, cross IPO323XD024) | phenotype flag, sensitive (S) ([2]; progeny isolate 220, cross IPO323XD024) | phenotype flag, sensitive (S) ([2]; progeny isolate 221, cross IPO323XD024) | phenotype flag, sensitive (S) ([2]; progeny isolate 223, cross IPO323XD024) | phenotype flag, sensitive (S) ([2]; progeny isolate 224, cross IPO323XD024) | phenotype flag, sensitive (S) ([2]; progeny isolate 225, cross IPO323XD024) | phenotype flag, sensitive (S) ([2]; progeny isolate 227, cross IPO323XD024) | phenotype flag, sensitive (S) ([2]; progeny isolate 228, cross IPO323XD024) | phenotype flag, sensitive (S) ([2]; progeny isolate 229, cross IPO323XD024) | Phenotype scored sensitive (S) ([2]; progeny isolate 230 of cross IPO323 x D024) | Phenotype scored sensitive (S) ([2]; progeny isolate 235 of cross IPO323 x D024) | Phenotype scored sensitive (S) ([2]; progeny isolate 237 of cross IPO323 x D024) | Phenotype scored sensitive (S) ([2]; progeny isolate 238 of cross IPO323 x D024) | Phenotype scored sensitive (S) ([2]; progeny isolate 239 of cross IPO323 x D024) | Phenotyping Growth Fluopyram 10ppm Sensitive ([2]; progeny strain 3, cross IPO323XD024) | Phenotyping Growth Fluopyram 10ppm Sensitive ([2]; progeny strain 10, cross IPO323XD024) | Phenotyping Growth Fluopyram 10ppm Sensitive ([2]; progeny strain 13, cross IPO323XD024) | Phenotyping Growth Fluopyram 10ppm Sensitive ([2]; progeny strain 14, cross IPO323XD024) | Phenotyping Growth Fluopyram 10ppm Sensitive ([2]; progeny strain 16, cross IPO323XD024) | Phenotyping Growth Fluopyram 10ppm Sensitive ([2]; progeny strain 17, cross IPO323XD024) | Phenotyping Growth Fluopyram 10ppm Sensitive ([2]; progeny strain 18, cross IPO323XD024) | Phenotyping Growth Fluopyram 10ppm Sensitive ([2]; progeny strain 19, cross IPO323XD024) | Phenotyping Growth Fluopyram 10ppm Sensitive ([2]; progeny strain 20, cross IPO323XD024) | Phenotyping Growth Fluopyram 10ppm Sensitive ([2]; progeny strain 21, cross IPO323XD024) | Phenotyping Growth Fluopyram 10ppm Sensitive ([2]; progeny strain 23, cross IPO323XD024) | Phenotyping Growth Fluopyram 10ppm Sensitive ([2]; strain IPO323 (parent), cross IPO323XD024, 0 = not)
1.8: RF (resistance factor), pTet Repressed (SDHC / altC) ([1]; IC50 ratio compared to IPO323 values)
0.0219 ± 0.0077 µM: IC50 ([1]; IPO323 pTet::SDHC3 transformant grown in presence of 30 mg.L^-1 doxycycline, mean of three ± SD)
